In patent publication EP0710105B1, “SYNERGISTIC ANTHELMINTIC COMPOSITIONS AGAINST FASCIOLA HEPATICA AND OTHER FASCIOLA SPECIES” (THE AUSTRALIAN NATIONAL UNIVERSITY, priority 1993, dated 1994):
Values joined by “and” are separate entries in the source; they are usually repeats but may differ in a detail not shown here. Equal entries are not always repeated.

Experiments:
Format in all cases: in vivo
[1] = test system: Fasciola hepatica aged 6 weeks resistant to triclabendazole; test: Controlled test in sheep: efficacy against immature F. hepatica, triclabendazole-resistant strain
Excerpt: (§1) In six controlled tests, a total of 212 merino wethers aged 1 to 2.5 years were used. The sheep were obtained from fluke free areas in North-West New South Wales.
(§2) Some isolates used in the trials were obtained from existing laboratory populations but the majority of the strains were isolated from the field, their resistance status was defined in several controlled tests and the isolates were then maintained in the laboratory. A laboratory strain from Compton U.K. (Compton Paddock Laboratories, Newbury, Berks. UK) was included in the tests. […] The other isolates originated from properties where salicylanilide compounds were used with variable frequency for the control of fasciolosis or haemonchosis, and also various benzimidazole carbamates were used for the control of gastrointestinal nematodes. Those isolates were further selected in the laboratory with benzimidazole compounds, such as luxabendazole (Hoechst Pty.Ltd., Frankfurt am Main, Germany) or by 8 weekly dosing a group of sheep with triclabendazole (Fasinex, CIBA-GEIGY Aust.Ltd., Pendle Hill, NSW Australia) in a 2 acre paddock with natural snail habitats contaminated with Fasciola hepatica .
(§3) In the trials, F.hepatica populations were isolated from properties and passaged through suitable intermediate host snails, Lymnaea tomentosa, L.viridis and L.columella in the laboratory. Sheep were then inoculated with the metacercariae of the selected strains by intraruminal injection of metacercariae suspended in 0.4% carboxy-methylcellulose solution. The sheep were divided into groups of 4 or 5. Standardised control tests (Boray, 1969), were carried out to determine the efficacy of various drugs and combinations against immature F.hepatica isolates.
(§4) Percentage reductions of fluke burdens for the sum of the individual drugs and for the combinations were estimated and their 95 % confidence limits were determined.
(§5) The drugs tested were triclabendazole (Fasinex, CIBA-GEIGY Australia Ltd.), clorsulon (Curatrem, MSD AGVET Rahway, New Jersey, USA), luxabendazole (Hoechst Pty.Ltd., Frankfurt am Main, Germany), closantel (Seponver, SmithKline Animal Health Australia Ltd.), closantel injectible (Flukiver, Janssen Pharma, Belgium), clorsulon injectible (Ivomec F, MSD Agvet,Rahway, New Jersey, USA) and nitroxynil injectible (Trodax, Cyanamid-Webster Australia Ltd.) The commercial formulations were used and for uniform pharmacokinetic distribution they were injected intraruminally (for those drugs it is equal to oral dosing) at the selected dose rate according to the body weight of the sheep 6 weeks after inoculation. In the trials with the injectible nitroxynil the drugs were applied as a subcutaneous injection. For each trial a group of sheep were left untreated as controls. The sheep were slaughtered 16 weeks after inoculation and the flukes were recovered from the livers and counted. […] The dose rates were selected based on many preliminary studies on the efficacy against F.hepatica aged 6 weeks. […] According to accepted standards (Boray, 1969) high efficacy is achieved when the drug reduces the fluke burden by 90% or more.

[2] = test system: Fasciola hepatica aged 6 weeks (Susceptible to the drugs used); test: Controlled test in sheep: efficacy against immature F. hepatica, susceptible strain
Excerpt: as §1, §2, §3, §4, §5

[3] = test system: Fasciola hepatica aged 6 weeks resistant to salicylanilides (closantel) and benzimidazole carbamates (luxabendazole); test: Controlled test in sheep: efficacy against immature F. hepatica, multiple resistant Armidale-Morven strain
Excerpt: as §1, §2, §3, §4, §5

[4] = test system: Fasciola hepatica aged 6 weeks, resistant to salicylanilides; test: Controlled test in sheep, subcutaneous injection: efficacy against immature F. hepatica, Hampton II strain
Excerpt: as §1, §2, §3, §4, §5

[5] = test system: Fasciola hepatica aged 6 weeks resistant to salicylanilides (closantel), susceptible to the other drug families used; test: Controlled test in sheep: efficacy against immature F. hepatica, salicylanilide-resistant strain; conditions: for efficacy: given alone at low dose rates
Excerpt: as §1, §2, §3, §4, §5

[6] = 2.0 mg/kg intraruminal, 2 mg/kg
[7] = 5.0 mg/kg intraruminal, 5 mg/kg
[8] = 3.0 mg/kg subcutaneous injection
[9] = 7.5 mg/kg intraruminal, 7.5 mg/kg
[10] = 7.0 mg/kg subcutaneous injection
[11] = 5.0 mg/kg intraruminal, listed as luxabendazole, 5 mg/kg

## CSc1nc2cc(Cl)c(Oc3cccc(Cl)c3Cl)cc2[nH]1 [Triclabendazole, triclabendazole]
[1]; 2.0 mg/kg intraruminal
  Mean No. of Fluke (SD): 55.0 (51.1)
[1]; [6]
  Percent Reduction of Fluke Burden (95% Confidence limits): 31.4 (2, 91) %
[1]; 2.0 mg/kg intraruminal, listed as triclabendazole, 2 mg/kg
  Percent Reduction of Fluke Burden (95% Confidence limits): 30%
[2]; 2.0 mg/kg intraruminal 6 weeks after inoculation, slaughter at 16 weeks
  Mean No. of Fluke (SD): 9.2 (8.3)
[2]; 2.0 mg/kg intraruminal, vs untreated controls, 2 mg/kg
  Percent Reduction of Fluke Burden (95% Confidence limits): 78.9 (58, 91) %
[2]; 2.0 mg/kg intraruminal, vs untreated controls, listed as triclabendazole, 2 mg/kg
  Percent Reduction of Fluke Burden (95% Confidence limits): 79%
[3]; 2.0 mg/kg intraruminal
  Mean No. of Fluke (SD): 25.5 (13.5)
  Percent Reduction of Fluke Burden (95% Confidence limits): 70%
[3]; [6]
  Percent Reduction of Fluke Burden (95% Confidence limits): 70.6 (53, 83) %

## Nc1cc(C(Cl)=C(Cl)Cl)c(S(N)(=O)=O)cc1S(N)(=O)=O [Clorsulon, clorsulon]
[4]; 2.0 mg/kg subcutaneous injection
  Mean No. of Fluke (SD): 18.4 (6.6)
[4]; 2.0 mg/kg subcutaneous injection, 2 mg/kg
  Percent Reduction of Fluke Burden (95% Confidence limits): 36.6 (9.76) %
[4]; 2.0 mg/kg subcutaneous injection, listed as clorsulon, 2 mg/kg
  Percent Reduction of Fluke Burden (95% Confidence limits): 36.5%
[1]; 3.0 mg/kg intraruminal
  Mean No. of Fluke (SD): 55.7 (42.9)
[1]; 3.0 mg/kg intraruminal, 3 mg/kg
  Percent Reduction of Fluke Burden (95% Confidence limits): 30% and 30.5 (2, 91) %
[1]; 5.0 mg/kg intraruminal
  Mean No. of Fluke (SD): 45.0 (26.3)
[1]; [7]
  Percent Reduction of Fluke Burden (95% Confidence limits): 43% and 43.9 (7, 89) %
[2]; 3.0 mg/kg intraruminal
  Mean No. of Fluke (SD): 32.5 (4.4)
  Percent Reduction of Fluke Burden (95% Confidence limits): 25.9 (6, 67) %
[2]; 5.0 mg/kg intraruminal
  Mean No. of Fluke (SD): 30.0 (11.6)
  Percent Reduction of Fluke Burden (95% Confidence limits): 31.6 (9, 67) %
[5]; 3.0 mg/kg intraruminal
  Mean No. of Fluke (SD): 57.5 (19.6)
  Percent Reduction of Fluke Burden (95% Confidence limits): 21.9 (3, 74) %
[5]
  efficacy: very low efficacy
[3]; 5.0 mg/kg intraruminal
  Mean No. of Fluke (SD): 41.0 (3.7)
[3]; [7]
  Percent Reduction of Fluke Burden (95% Confidence limits): 52.7 (33,72) %
[3]; 5.0 mg/kg intraruminal, listed as clorsulon, 5 mg/kg
  Percent Reduction of Fluke Burden (95% Confidence limits): 52%

## COC(=O)Nc1nc2ccc([S+]([O-])c3ccccc3)cc2[nH]1 (centres unmarked) [Oxfendazole, oxfendazole]
[5]; 5.0 mg/kg intraruminal
  Mean No. of Fluke (SD): 74.5 (14.8)
[5]
  efficacy: very low efficacy

## CCCSc1ccc2nc(NC(=O)OC)[nH]c2c1 [Albendazole, albendazole]
[5]; 5.0 mg/kg intraruminal
  Mean No. of Fluke (SD): 52.7 (6.9)
  Percent Reduction of Fluke Burden (95% Confidence limits): 28.4 (6, 72) %
[5]
  efficacy: very low efficacy

## Cc1cc(C(C#N)c2ccc(Cl)cc2)c(Cl)cc1NC(=O)c1cc(I)cc(I)c1O (centres unmarked) [Closantel, closantel]
[4]; [8]
  Mean No. of Fluke (SD): 24.4 (14.4)
  Percent Reduction of Fluke Burden (95% Confidence limits): 15.9%
[5]; 5.0 mg/kg intraruminal
  Mean No. of Fluke (SD): 62.0 (17.1)
[5]; 7.5 mg/kg intraruminal
  Mean No. of Fluke (SD): 48.2 (38 6)
  Percent Reduction of Fluke Burden (95% Confidence limits): 34.5 (10, 72) %
[5]
  efficacy: very low efficacy
[3]; 7.5 mg/kg intraruminal
  Mean No. of Fluke (SD): 118 (113.3)
  Percent Reduction of Fluke Burden (95% Confidence limits): 0.0%
[3]; [9]
  Percent Reduction of Fluke Burden (95% Confidence limits): inefficient

## N#Cc1cc(I)c(O)c([N+](=O)[O-])c1 [Nitroxynil, nitroxynil]
[4]; [10]
  Mean No. of Fluke (SD): 26.6 (6.6)
  Percent Reduction of Fluke Burden (95% Confidence limits): 8.3%

## COC(=O)Nc1nc2ccc(Sc3ccccc3)cc2[nH]1 [Fenbendazole, fenbendazole]
[5]; 5.0 mg/kg intraruminal
  Mean No. of Fluke (SD): 71.0 (8.0)
  Percent Reduction of Fluke Burden (95% Confidence limits): 3.6%
[5]
  efficacy: very low efficacy

## COC(=O)Nc1nc2cc(OS(=O)(=O)c3ccc(F)cc3)ccc2[nH]1 [Luxabendazole, luxabendazole]
[1]; 5.0 mg/kg intraruminal
  Mean No. of Fluke (SD): 62.7 (61.3)
[1]; [7]
  Percent Reduction of Fluke Burden (95% Confidence limits): 21.7 (1, 95) %
[1]; [11]
  Percent Reduction of Fluke Burden (95% Confidence limits): 21%
[2]; 5.0 mg/kg intraruminal
  Mean No. of Fluke (SD): 32.0 (9.5)
[2]; [7]
  Percent Reduction of Fluke Burden (95% Confidence limits): 27.0 (6, 67) %
[2]; [11]
  Percent Reduction of Fluke Burden (95% Confidence limits): 26%
[5]; 5.0 mg/kg intraruminal
  Mean No. of Fluke (SD): 51.7 (25.3)
[5]
  efficacy: very low efficacy
[3]; 7.5 mg/kg intraruminal
  Mean No. of Fluke (SD): 89.0 (22.6)
  Percent Reduction of Fluke Burden (95% Confidence limits): 0.0%
[3]; [9]
  Percent Reduction of Fluke Burden (95% Confidence limits): inefficient
